Series [1] has as its target T1, NEDD8/Cullin-1 (Homo sapiens) (UniProt Q13616+Q15843). The experiment in a line: Inhibition of Nedd8-cullin1 (unknown origin) adduct formation assessed as decrease in cullin1 neddylation at 50 uM preincubated for 10 mins followed by ATP addition and measured after 30 mins by immunoblot analysis. The series is classed as protein assay. For orientation: Immunoblotting shows a protein as a band on a membrane.

In series [2] the target is T1, NEDD8/Cullin-1 (Homo sapiens). Put plainly: Inhibition of Nedd8-cullin1 adduct formation in human A549 cells assessed as decrease in cullin1 neddylation at 100 uM incubated for 6 to 12 hrs by Western blot analysis. The class given is cell-based.
Series [3] shares this target. Put plainly: Inhibition of Nedd8-cullin1 adduct formation in human A549 cells assessed as decrease in cullin1 neddylation at 60 to 80 uM measured after 6 hrs by Western blot analysis. The class given is cell-based.
Target sequence in this assay (Q13616 whole entry, looked up): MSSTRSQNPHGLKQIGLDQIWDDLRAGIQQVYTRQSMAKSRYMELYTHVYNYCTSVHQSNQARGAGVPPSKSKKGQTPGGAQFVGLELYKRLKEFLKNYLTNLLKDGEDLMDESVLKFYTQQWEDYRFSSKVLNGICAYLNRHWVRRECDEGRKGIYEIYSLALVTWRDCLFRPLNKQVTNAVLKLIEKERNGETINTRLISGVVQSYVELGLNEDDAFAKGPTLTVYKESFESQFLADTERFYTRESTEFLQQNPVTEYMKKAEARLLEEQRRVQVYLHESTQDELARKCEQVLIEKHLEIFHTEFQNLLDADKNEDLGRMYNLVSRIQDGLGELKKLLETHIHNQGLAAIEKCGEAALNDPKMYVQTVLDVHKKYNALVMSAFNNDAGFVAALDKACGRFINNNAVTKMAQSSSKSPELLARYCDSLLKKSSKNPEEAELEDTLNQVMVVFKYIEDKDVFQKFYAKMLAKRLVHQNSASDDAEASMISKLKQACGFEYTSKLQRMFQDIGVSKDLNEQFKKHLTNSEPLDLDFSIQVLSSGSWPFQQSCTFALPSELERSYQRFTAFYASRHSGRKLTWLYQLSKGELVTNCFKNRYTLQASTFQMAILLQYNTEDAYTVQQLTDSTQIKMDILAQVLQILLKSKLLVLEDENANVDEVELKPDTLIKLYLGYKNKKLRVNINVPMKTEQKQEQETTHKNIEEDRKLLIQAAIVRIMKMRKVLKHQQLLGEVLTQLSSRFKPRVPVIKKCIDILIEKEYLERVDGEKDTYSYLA
Target sequence in this assay (Q15843 whole entry, looked up): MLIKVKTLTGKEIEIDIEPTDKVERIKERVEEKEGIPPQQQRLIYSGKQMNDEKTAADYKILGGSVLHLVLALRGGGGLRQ
Series [4] has the same target. Put plainly: Inhibition of Nedd8-cullin1 adduct formation in human A549 cells assessed as decrease in cullin1 neddylation at 50 uM measured after 6 hrs by Western blot analysis. The series is classed as cell-based.
Target sequence in this assay (Q13616 whole entry, looked up): as the sequence (Q13616 whole entry, looked up) above
Target sequence in this assay (Q15843 whole entry, looked up): as the sequence (Q15843 whole entry, looked up) above
Series [5] shares this target. The experiment in a line: Inhibition of Nedd8-cullin1 adduct formation in human A549 cells assessed as decrease in cullin1 neddylation at 75 uM measured after 6 hrs by Western blot analysis. The class given is cell-based.
Target sequence in this assay (Q13616 whole entry, looked up): as the sequence (Q13616 whole entry, looked up) above
Target sequence in this assay (Q15843 whole entry, looked up): as the sequence (Q15843 whole entry, looked up) above
Series [6] in a line: Toxicity in nude mouse xenografted with human A549 cells assessed as effect on body weight at 30 to 60 mg/kg, ip qd measured every 2 days. To be noted: in vivo, 48 h. The series is classed as organism-based. In general terms: Xenograft models place foreign cells or tissue in a host animal.
In another series the target is T2, NEDD8 activating enzyme (Homo sapiens, UniProt Q8TBC4).
T2 sequence (Q8TBC4 whole entry): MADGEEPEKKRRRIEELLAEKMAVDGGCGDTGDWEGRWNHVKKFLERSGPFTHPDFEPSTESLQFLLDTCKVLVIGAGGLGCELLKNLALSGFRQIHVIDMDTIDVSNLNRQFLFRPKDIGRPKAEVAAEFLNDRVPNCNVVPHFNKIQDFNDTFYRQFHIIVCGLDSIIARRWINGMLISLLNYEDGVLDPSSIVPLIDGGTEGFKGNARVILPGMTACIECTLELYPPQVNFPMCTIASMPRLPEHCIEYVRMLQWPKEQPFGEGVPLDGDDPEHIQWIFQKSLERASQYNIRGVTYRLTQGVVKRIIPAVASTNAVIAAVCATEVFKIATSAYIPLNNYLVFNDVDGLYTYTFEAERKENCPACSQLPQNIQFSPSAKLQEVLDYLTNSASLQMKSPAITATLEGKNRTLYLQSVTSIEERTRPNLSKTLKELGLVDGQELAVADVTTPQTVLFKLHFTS
T2 sequence (Q13564 whole entry): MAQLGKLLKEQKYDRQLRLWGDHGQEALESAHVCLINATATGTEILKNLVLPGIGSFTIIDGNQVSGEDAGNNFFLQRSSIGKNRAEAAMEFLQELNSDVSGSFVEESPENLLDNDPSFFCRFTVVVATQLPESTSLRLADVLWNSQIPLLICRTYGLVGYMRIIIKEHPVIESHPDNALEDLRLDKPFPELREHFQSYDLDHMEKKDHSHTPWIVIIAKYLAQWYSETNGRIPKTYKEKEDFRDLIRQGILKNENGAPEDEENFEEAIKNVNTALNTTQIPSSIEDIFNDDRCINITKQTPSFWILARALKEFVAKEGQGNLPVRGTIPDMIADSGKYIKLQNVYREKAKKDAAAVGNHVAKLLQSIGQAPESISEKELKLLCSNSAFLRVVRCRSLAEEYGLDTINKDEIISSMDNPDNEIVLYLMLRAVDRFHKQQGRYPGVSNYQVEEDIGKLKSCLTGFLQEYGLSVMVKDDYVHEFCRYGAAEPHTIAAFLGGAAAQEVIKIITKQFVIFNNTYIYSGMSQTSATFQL
Put plainly: Binding affinity to biotin-labeled GST-tagged NAE (unknown origin) incubated for 1 hr by SPR assay. The class given is protein-complex assay. On the technique in general: SPR reads the build-up and loss of mass on a sensor chip optically.

The subject of series [7] is MCF7. Put plainly: Antiproliferative activity against human MCF7 cells measured after 72 to 96 hrs by CCK8 assay. The series is classed as functional, cell-based.
In series [8] the test system is A549. The experiment in a line: Antitumor activity against human A549 cells xenografted in nude mouse assessed as decrease in tumor weight at 60 mg/kg, ip qd measured after 22 days. The series is classed as functional, organism-based.
Series [9] has as its system Huh-7. The experiment in a line: Antiproliferative activity against human HuH7 cells measured after 72 to 96 hrs by CCK8 assay. The class given is functional, cell-based.
Series [10] relates to A549. Put plainly: Antitumor activity against human A549 cells xenografted in nude mouse assessed as decrease in tumor size at 60 mg/kg, ip qd measured after 22 days. The class given is functional, organism-based.
Series [11] concerns the target T1, NEDD8/Cullin-1 (Homo sapiens). The experiment in a line: Inhibition of Nedd8-cullin1 (unknown origin) adduct formation assessed as decrease in cullin1 neddylation at 10 uM preincubated for 10 mins followed by ATP addition and measured after 30 mins by immunoblot analysis. The class given is protein assay.
Target sequence in this assay (Q13616 whole entry, looked up): as the sequence (Q13616 whole entry, looked up) above
Target sequence in this assay (Q15843 whole entry, looked up): as the sequence (Q15843 whole entry, looked up) above
Series [12] concerns MKN-45. Put plainly: Antiproliferative activity against human MKN45 cells measured after 48 hrs by CCK8 assay. The class given is functional, cell-based. As to conditions: MKN-45, 48 h.
Series [13] concerns NCI-H1299. The experiment in a line: Antiproliferative activity against human H1299 cells measured after 48 hrs by CCK8 assay. The class given is functional, cell-based. As to conditions: NCI-H1299, 48 h.
Series [14] has as its system NCI-H1299. Put plainly: Antiproliferative activity against human H1299 cells measured after 72 to 96 hrs by CCK8 assay. The series is classed as functional, cell-based.
Series [15] concerns PLC. Put plainly: Antiproliferative activity against human PLC cells measured after 48 hrs by CCK8 assay. The series is classed as functional, cell-based.
The test system of series [16] is T47D. The experiment in a line: Antiproliferative activity against human T47D cells measured after 48 hrs by CCK8 assay. The class given is functional, cell-based.
Series [17] has as its system EKVX. The experiment in a line: Antiproliferative activity against human EKVX cells measured after 72 to 96 hrs by CCK8 assay. The series is classed as functional, cell-based.
Series [18] concerns MCF7. The experiment in a line: Antiproliferative activity against human MCF7 cells measured after 48 hrs by CCK8 assay. To be noted: MCF7, 48 h. The class given is functional, cell-based.
For series [19], the system named is Huh-7. Put plainly: Antiproliferative activity against human HuH7 cells measured after 48 hrs by CCK8 assay. The class given is functional, cell-based. As to conditions: Huh-7, 48 h.
The test system of series [20] is PLC. The experiment in a line: Antiproliferative activity against human PLC cells measured after 72 to 96 hrs by CCK8 assay. The series is classed as functional, cell-based.
Series [21] concerns T47D. Put plainly: Antiproliferative activity against human T47D cells measured after 72 to 96 hrs by CCK8 assay. The series is classed as functional, cell-based.
Series [22] has as its system HepG2. The experiment in a line: Antiproliferative activity against human HepG2 cells measured after 48 hrs by CCK8 assay. The series is classed as functional, cell-based. As to conditions: HepG2, 48 h.
Series [23] deals with MGC-803. Put plainly: Antiproliferative activity against human MGC803 cells measured after 72 to 96 hrs by CCK8 assay. The class given is functional, cell-based.
In series [24] the test system is HepG2. Put plainly: Antiproliferative activity against human HepG2 cells measured after 72 to 96 hrs by CCK8 assay. The series is classed as functional, cell-based.
Series [25] can be described thus: Toxicity in nude mouse xenografted with human A549 cells assessed as effect on body weight at 60 mg/kg, ip qd measured every 2 days. The series is classed as organism-based. As to conditions: in vivo, 48 h.
Series [26] concerns EKVX. The experiment in a line: Antiproliferative activity against human EKVX cells measured after 48 hrs by CCK8 assay. The class given is functional, cell-based.
Series [27] concerns MKN-45. The experiment in a line: Antiproliferative activity against human MKN45 cells measured after 72 to 96 hrs by CCK8 assay. The class given is functional, cell-based.
The test system of series [28] is MGC-803. Put plainly: Antiproliferative activity against human MGC803 cells measured after 48 hrs by CCK8 assay. As to conditions: MGC-803, 48 h. The series is classed as functional, cell-based.

pIC50, pKd: −log10 of the molar value. Calls of active or inactive are those of the source. The calls are words filed in the database; no cut-off is given here. A value given as a limit tells only on which side of the number the result lay.

As to `CCCCCCCCCCCCCCCC[n+]1ccccc1`, the inhibition result in series [1] is “Active”. In addition, the inhibition entry in series [2] is “inactive”.

On to `CN1CCN(CCCN2c3ccccc3Sc3ccc(C(F)(F)F)cc32)CC1`, for which the inhibition result in series [1] was “Active”. In addition, the inhibition entry in series [2] was “inactive”.

`Clc1ccc(CCNC2CCN(Cc3ccccc3)CC2)c(Cl)c1`: the inhibition entry in series [3] was “Active”.

Consider `O=C1c2c(O)ccc(O)c2C(=O)c2c(NCCNCCO)ccc(NCCNCCO)c21`, for which the inhibition result in [4] is “inactive”. In [5], the inhibition entry was “Active”.

As for `CCOc1nc2cccc(C(=O)OC(C)OC(=O)OC3CCCCC3)c2n1Cc1ccc(-c2ccccc2-c2nnn[nH]2)cc1` (stereo not drawn) [CANDESARTAN CILEXETIL], the Activity result in series [6] is “Non-Toxic”. The negative logarithm of the Kd (pKd) (in general, −log10 of the Kd, conventionally taken in molar units) on NEDD8 activating enzyme was 3.71.

In the case of `NS(=O)(=O)OC[C@@H]1C[C@@H](n2ccc3c(N[C@H]4CCc5ccccc54)ncnc32)C[C@@H]1O` [PEVONEDISTAT], the pIC50 (in general, the IC50 on a negative log10 scale, so that one unit is a factor of ten) is 5.92 to 6.52 in the series on MCF7 [7]; 5.92 to 6.52 in the series with Huh-7 [9]; less than 5.00 in the series with MKN-45 [12]; less than 5.00 in the series on NCI-H1299 [13]; 5.92 to 6.52 in the series with NCI-H1299 [14]; less than 5.00 in the series on PLC [15]. The pIC50 was less than 5.00 in the series on T47D [16]; 5.92 to 6.52 in the series on EKVX [17]; less than 5.00 with MCF7 [18]; less than 5.00 with Huh-7 [19]; 5.92 to 6.52 in the series on PLC [20]; 5.92 to 6.52 in the series on T47D [21]. Moreover, the pIC50 in the series on HepG2 [22] was less than 5.00; in the series on MGC-803 [23] it was 5.92 to 6.52; with HepG2 [24] it was 5.92 to 6.52; in the series on EKVX [26], less than 5.00; with MKN-45 [27], 5.92 to 6.52; with MGC-803 [28], less than 5.00. The outcome with A549 [8] and in the series on A549 [10] was Active. Further, in series [11], the inhibition entry was “Active”. The Activity result in series [25] is given as “Non-Toxic”.

Regarding BISMUTH SUBCITRATE POTASSIUM, the inhibition entry in [1] was “Active”. For the same compound, in series [2], the inhibition result is “inactive”.

These data come from ChEMBL document CHEMBL4312031, “Discovery of candesartan cilexetic as a novel neddylation inhibitor for suppressing tumor growth” (Eur J Med Chem, 2020).
